This passage reports IC50 results from ChEMBL document CHEMBL4706643 (J Med Chem, 2021).

This experiment deals with Hepatitis B virus. The experiment in a line: Antiviral activity against HBV infected in human HepG2-NTCP cells assessed as reduction in HBeAg secretion cells inoculated with virus for 4 hrs at room temperature and 37 degree C for 24 hrs followed inoculum changed with PMM medium for every 2 days until day 5 post infection by ELISA. It is filed as functional, organism-based. (An ELISA detects its analyte on a solid surface through an enzyme-linked reagent.)

For orientation: IC50 means the concentration that gives 50% inhibition. Regarding `CC[C@@H]1NC(=O)[C@H]([C@@H]2O[C@@H](Sc3cccc(NC)c3)C[C@H]2C)N(C)C(=O)[C@H](C(C)C)N(C)C(=O)[C@H](CC(C)C)N(C)C(=O)[C@H](CC(C)C)N(C)C(=O)[C@@H](C)NC(=O)[C@H](C)NC(=O)[C@H](CC(C)C)N(C)C(=O)[C@H](C(C)C)NC(=O)[C@H](CC(C)C)N(C)C(=O)CN(C)C1=O`, the 50% inhibitory concentration (IC50) worked out at 1200 nM. `CC[C@@H]1NC(=O)[C@H]([C@@H]2O[C@H](Oc3cccc(OCc4ccccc4)c3)C[C@H]2C)N(C)C(=O)[C@H](C(C)C)N(C)C(=O)[C@H](CC(C)C)N(C)C(=O)[C@H](CC(C)C)N(C)C(=O)[C@@H](C)NC(=O)[C@H](C)NC(=O)[C@H](CC(C)C)N(C)C(=O)[C@H](C(C)C)NC(=O)[C@H](CC(C)C)N(C)C(=O)CN(C)C1=O`: the IC50 worked out at 681 nM. In the case of `CC[C@@H]1NC(=O)[C@H]([C@@H]2O[C@@H](Sc3cc(Cl)cc(OCc4ccc(F)cc4)c3)C[C@H]2C)N(C)C(=O)[C@H](C(C)C)N(C)C(=O)[C@H](CC(C)C)N(C)C(=O)[C@H](CC(C)C)N(C)C(=O)[C@@H](C)NC(=O)[C@H](C)NC(=O)[C@H](CC(C)C)N(C)C(=O)[C@H](C(C)C)NC(=O)[C@H](CC(C)C)N(C)C(=O)CN(C)C1=O`, the IC50 worked out at 417 nM. Next, `CC[C@@H]1NC(=O)[C@H]([C@@H]2O[C@@H](Sc3cccc(OCCc4ccccc4)c3)C[C@H]2C)N(C)C(=O)[C@H](C(C)C)N(C)C(=O)[C@H](CC(C)C)N(C)C(=O)[C@H](CC(C)C)N(C)C(=O)[C@@H](C)NC(=O)[C@H](C)NC(=O)[C@H](CC(C)C)N(C)C(=O)[C@H](C(C)C)NC(=O)[C@H](CC(C)C)N(C)C(=O)CN(C)C1=O`: 354 nM; `CC[C@@H]1NC(=O)[C@H]([C@@H]2O[C@@H](Sc3nccc(C(F)(F)F)n3)C[C@H]2C)N(C)C(=O)[C@H](C(C)C)N(C)C(=O)[C@H](CC(C)C)N(C)C(=O)[C@H](CC(C)C)N(C)C(=O)[C@@H](C)NC(=O)[C@H](C)NC(=O)[C@H](CC(C)C)N(C)C(=O)[C@H](C(C)C)NC(=O)[C@H](CC(C)C)N(C)C(=O)CN(C)C1=O`: 4960 nM; `CC[C@@H]1NC(=O)C([C@@H]2OC(O)C[C@H]2C)N(C)C(=O)[C@H](C(C)C)N(C)C(=O)[C@H](CC(C)C)N(C)C(=O)[C@H](CC(C)C)N(C)C(=O)[C@@H](C)NC(=O)[C@H](C)NC(=O)[C@H](CC(C)C)N(C)C(=O)[C@H](C(C)C)NC(=O)[C@H](CC(C)C)N(C)C(=O)CN(C)C1=O` (some centres undefined): 11900 nM.

For `CC[C@@H]1NC(=O)[C@H]([C@@H]2O[C@@H](Sc3cccc(OCc4ccccn4)c3)C[C@H]2C)N(C)C(=O)[C@H](C(C)C)N(C)C(=O)[C@H](CC(C)C)N(C)C(=O)[C@H](CC(C)C)N(C)C(=O)[C@@H](C)NC(=O)[C@H](C)NC(=O)[C@H](CC(C)C)N(C)C(=O)[C@H](C(C)C)NC(=O)[C@H](CC(C)C)N(C)C(=O)CN(C)C1=O`, the IC50 stood at 317 nM. With `CC[C@@H]1NC(=O)[C@H]([C@@H]2O[C@@H](Sc3ccc(OC)cc3)C[C@H]2C)N(C)C(=O)[C@H](C(C)C)N(C)C(=O)[C@H](CC(C)C)N(C)C(=O)[C@H](CC(C)C)N(C)C(=O)[C@@H](C)NC(=O)[C@H](C)NC(=O)[C@H](CC(C)C)N(C)C(=O)[C@H](C(C)C)NC(=O)[C@H](CC(C)C)N(C)C(=O)CN(C)C1=O`, the IC50 is 990 nM. Next, `CC[C@@H]1NC(=O)[C@H]([C@@H]2O[C@H](Sc3ccccc3)C[C@H]2C)N(C)C(=O)[C@H](C(C)C)N(C)C(=O)[C@H](CC(C)C)N(C)C(=O)[C@H](CC(C)C)N(C)C(=O)[C@@H](C)NC(=O)[C@H](C)NC(=O)[C@H](CC(C)C)N(C)C(=O)[C@H](C(C)C)NC(=O)[C@H](CC(C)C)N(C)C(=O)CN(C)C1=O`: 5330 nM; `CC[C@@H]1NC(=O)[C@H]([C@@H]2O[C@@H](Oc3cc(OC)cc(OC)c3)C[C@H]2C)N(C)C(=O)[C@H](C(C)C)N(C)C(=O)[C@H](CC(C)C)N(C)C(=O)[C@H](CC(C)C)N(C)C(=O)[C@@H](C)NC(=O)[C@H](C)NC(=O)[C@H](CC(C)C)N(C)C(=O)[C@H](C(C)C)NC(=O)[C@H](CC(C)C)N(C)C(=O)CN(C)C1=O`: 689 nM; `CC[C@@H]1NC(=O)[C@H]([C@@H]2O[C@@H](Sc3cccc(OCc4cccc(F)c4)c3)C[C@H]2C)N(C)C(=O)[C@H](C(C)C)N(C)C(=O)[C@H](CC(C)C)N(C)C(=O)[C@H](CC(C)C)N(C)C(=O)[C@@H](C)NC(=O)[C@H](C)NC(=O)[C@H](CC(C)C)N(C)C(=O)[C@H](C(C)C)NC(=O)[C@H](CC(C)C)N(C)C(=O)CN(C)C1=O`: 197 nM. In the case of `CC[C@@H]1NC(=O)[C@H]([C@@H]2O[C@@H](Sc3cccc(OC(C)c4ccccc4)c3)C[C@H]2C)N(C)C(=O)[C@H](C(C)C)N(C)C(=O)[C@H](CC(C)C)N(C)C(=O)[C@H](CC(C)C)N(C)C(=O)[C@@H](C)NC(=O)[C@H](C)NC(=O)[C@H](CC(C)C)N(C)C(=O)[C@H](C(C)C)NC(=O)[C@H](CC(C)C)N(C)C(=O)CN(C)C1=O` (some centres undefined) it was 172 nM; in that of `CC[C@@H]1NC(=O)[C@H]([C@@H]2O[C@@H](Sc3cccc(OCc4ccc(F)c(Cl)c4)c3)C[C@H]2C)N(C)C(=O)[C@H](C(C)C)N(C)C(=O)[C@H](CC(C)C)N(C)C(=O)[C@H](CC(C)C)N(C)C(=O)[C@@H](C)NC(=O)[C@H](C)NC(=O)[C@H](CC(C)C)N(C)C(=O)[C@H](C(C)C)NC(=O)[C@H](CC(C)C)N(C)C(=O)CN(C)C1=O`, 335 nM. Regarding `CC[C@@H]1NC(=O)[C@H]([C@@H]2O[C@@H](Sc3ccc(Cl)c(OCc4ccccc4)c3)C[C@H]2C)N(C)C(=O)[C@H](C(C)C)N(C)C(=O)[C@H](CC(C)C)N(C)C(=O)[C@H](CC(C)C)N(C)C(=O)[C@@H](C)NC(=O)[C@H](C)NC(=O)[C@H](CC(C)C)N(C)C(=O)[C@H](C(C)C)NC(=O)[C@H](CC(C)C)N(C)C(=O)CN(C)C1=O`, the IC50 is 215 nM. As to `CC[C@@H]1NC(=O)[C@H]([C@@H]2O[C@@H](Sc3cc(OC)cc(OCc4ccc(F)cc4)c3)C[C@H]2C)N(C)C(=O)[C@H](C(C)C)N(C)C(=O)[C@H](CC(C)C)N(C)C(=O)[C@H](CC(C)C)N(C)C(=O)[C@@H](C)NC(=O)[C@H](C)NC(=O)[C@H](CC(C)C)N(C)C(=O)[C@H](C(C)C)NC(=O)[C@H](CC(C)C)N(C)C(=O)CN(C)C1=O`, the IC50 was 216 nM. Next, `CC[C@@H]1NC(=O)[C@H]([C@@H]2OC(OC)C[C@H]2C)N(C)C(=O)[C@H](C(C)C)N(C)C(=O)[C@H](CC(C)C)N(C)C(=O)[C@H](CC(C)C)N(C)C(=O)[C@@H](C)NC(=O)[C@H](C)NC(=O)[C@H](CC(C)C)N(C)C(=O)[C@H](C(C)C)NC(=O)[C@H](CC(C)C)N(C)C(=O)CN(C)C1=O` (some centres undefined): 13500 nM. With `CCCOc1cccc(S[C@H]2C[C@@H](C)[C@H]([C@H]3C(=O)N[C@@H](CC)C(=O)N(C)CC(=O)N(C)[C@@H](CC(C)C)C(=O)N[C@@H](C(C)C)C(=O)N(C)[C@@H](CC(C)C)C(=O)N[C@@H](C)C(=O)N[C@H](C)C(=O)N(C)[C@@H](CC(C)C)C(=O)N(C)[C@@H](CC(C)C)C(=O)N(C)[C@@H](C(C)C)C(=O)N3C)O2)c1`, the IC50 turned out to be 223 nM.

With `CC[C@@H]1NC(=O)[C@H]([C@@H]2OC(OCCC(=O)O)C[C@H]2C)N(C)C(=O)[C@H](C(C)C)N(C)C(=O)[C@H](CC(C)C)N(C)C(=O)[C@H](CC(C)C)N(C)C(=O)[C@@H](C)NC(=O)[C@H](C)NC(=O)[C@H](CC(C)C)N(C)C(=O)[C@H](C(C)C)NC(=O)[C@H](CC(C)C)N(C)C(=O)CN(C)C1=O` (some centres undefined), the IC50 is > 10000 nM. On to `CC[C@@H]1NC(=O)[C@H]([C@@H]2O[C@@H](Oc3cccc(OCc4ccccc4)c3)C[C@H]2C)N(C)C(=O)[C@H](C(C)C)N(C)C(=O)[C@H](CC(C)C)N(C)C(=O)[C@H](CC(C)C)N(C)C(=O)[C@@H](C)NC(=O)[C@H](C)NC(=O)[C@H](CC(C)C)N(C)C(=O)[C@H](C(C)C)NC(=O)[C@H](CC(C)C)N(C)C(=O)CN(C)C1=O`, for which the IC50 came out at 344 nM. On to `CC[C@@H]1NC(=O)[C@H]([C@@H]2O[C@@H](Sc3cccc(N(C)CC)c3)C[C@H]2C)N(C)C(=O)[C@H](C(C)C)N(C)C(=O)[C@H](CC(C)C)N(C)C(=O)[C@H](CC(C)C)N(C)C(=O)[C@@H](C)NC(=O)[C@H](C)NC(=O)[C@H](CC(C)C)N(C)C(=O)[C@H](C(C)C)NC(=O)[C@H](CC(C)C)N(C)C(=O)CN(C)C1=O`, for which the IC50 stood at 206 nM. With `CC[C@@H]1NC(=O)[C@H]([C@@H]2O[C@@H](Sc3ccc(CN4CCN(C)CC4)cc3)C[C@H]2C)N(C)C(=O)[C@H](C(C)C)N(C)C(=O)[C@H](CC(C)C)N(C)C(=O)[C@H](CC(C)C)N(C)C(=O)[C@@H](C)NC(=O)[C@H](C)NC(=O)[C@H](CC(C)C)N(C)C(=O)[C@H](C(C)C)NC(=O)[C@H](CC(C)C)N(C)C(=O)CN(C)C1=O`, the IC50 was 1540 nM. As to `CC[C@@H]1NC(=O)[C@H]([C@@H]2O[C@@H](Sc3cccc(OCc4ccc(=O)n(C)c4)c3)C[C@H]2C)N(C)C(=O)[C@H](C(C)C)N(C)C(=O)[C@H](CC(C)C)N(C)C(=O)[C@H](CC(C)C)N(C)C(=O)[C@@H](C)NC(=O)[C@H](C)NC(=O)[C@H](CC(C)C)N(C)C(=O)[C@H](C(C)C)NC(=O)[C@H](CC(C)C)N(C)C(=O)CN(C)C1=O`, the IC50 came to 480 nM. With `CC[C@@H]1NC(=O)[C@H]([C@@H]2O[C@@H](Sc3cccc(OCC4CC4)c3)C[C@H]2C)N(C)C(=O)[C@H](C(C)C)N(C)C(=O)[C@H](CC(C)C)N(C)C(=O)[C@H](CC(C)C)N(C)C(=O)[C@@H](C)NC(=O)[C@H](C)NC(=O)[C@H](CC(C)C)N(C)C(=O)[C@H](C(C)C)NC(=O)[C@H](CC(C)C)N(C)C(=O)CN(C)C1=O`, the IC50 is 365 nM.

Take `CC[C@@H]1NC(=O)[C@H]([C@@H]2OCC[C@H]2C)N(C)C(=O)[C@H](C(C)C)N(C)C(=O)[C@H](CC(C)C)N(C)C(=O)[C@H](CC(C)C)N(C)C(=O)[C@@H](C)NC(=O)[C@H](C)NC(=O)[C@H](CC(C)C)N(C)C(=O)[C@H](C(C)C)NC(=O)[C@H](CC(C)C)N(C)C(=O)CN(C)C1=O`: the IC50 is > 10000 nM.
